Publication PMC8461356 (Heliyon, 2021)
Read-outs that look alike come from different tables or passages of the source.

Legend:
[1] = cited from earlier work
[2] = in vivo studies; cited from earlier work
HEK-293 cells = assay type: cell-based, Human; settings: for toxicity enhanced: co-treatment with UV 365 nm and 40 °C; for more cell death after exposing herbicide to 40 °C for 2 h: herbicide at LD50, no UV, compared with 4 °C and RT groups, 24-h cell exposure; for change in cell viability: 2 h of 40 °C/UV 254 nm; for increased toxicity: vs no UV
[3] = assay type: cell-based, Human; settings: human, HEK-293 cells, relative cell viability, 4 °C/No UV = 100 %
isolated rat hepatocytes = settings: rats and dogs, 100–200 μmole L-1 for 2–4 h; cited from earlier work
[4] = outdoor aquatic mesocosms, at 25 ng mL^−1; cited from earlier work

**Q.** Which half-life ([1]; aerobic condition) does the source give for CCNc1nc(Cl)nc(NC(C)C)n1 [Atrazine, atrazine] here?
**A.** about 150 days

**Q.** What about the half-life ([1]; anaerobic condition) of the same compound?
**A.** more than 2 years

**Q.** And the half-life ([1]; in soil)?
**A.** up to 6 months

**Q.** For CCNc1nc(Cl)nc(NCC)n1 [Simazine, simazine], which “LD50 (NIH TOXNET)” value [2] is on record?
**A.** > 5000 mg/kg

**Q.** With CC(C)Nc1nc(Cl)nc(NC(C)C)n1 [Propazine, propazine] as the compound, how does the “LD50 (NIH TOXNET)” value [2] read?
**A.** > 5000 mg/kg

**Q.** Which toxicity enhanced (HEK-293 cells) does the source give for CCOCN(C(=O)CCl)c1c(C)cccc1CC [Acetochlor, acetochlor] here?
**A.** 55%

**Q.** What about the “more cell death after exposing herbicide to 40 °C for 2 h” value (HEK-293 cells) of the same compound?
**A.** about 45%

**Q.** What about the viability at 24 h ([3]; 40 °C/No UV 2 h) of the same compound?
**A.** 56.6%

**Q.** What about the viability at 24 h ([3]; 40 °C/UV 254 nm 2 h) of the same compound?
**A.** 163%

**Q.** What about the viability at 24 h ([3]; 40 °C/UV 365 nm 2 h) of the same compound?
**A.** 45.1%

**Q.** What does the source list for CCc1cccc(C)c1N(C(=O)CCl)C(C)COC (stereo not shown) [Metolachlor, metolachlor]?
**A.** change in cell viability (HEK-293 cells): no further changes; differences in cell viability responses between 4 °C, 23 °C and 40 °C groups (HEK-293 cells; UV 254 nm and UV 365 nm for 2 h): no differences; temperature effect on herbicide-triggered cytotoxicity (HEK-293 cells; herbicide at LD50 kept 2 h at 4, 23 or 40 °C, no UV, 4 °C group as control): no further effect; UV effect on cytotoxicity (HEK-293 cells; no UV, UV 254 nm and UV 365 nm groups, 2 h at 4 °C): no further change; hepatotoxicity (isolated rat hepatocytes): not; half-life [4]: 33.8 days

**Q.** Which results are given for CCc1cccc(CC)c1N(COC)C(=O)CCl [Alachlor, alachlor]?
**A.** change in cell viability (HEK-293 cells): no further changes; toxicity enhanced (HEK-293 cells): 80%; more cell death after exposing herbicide to 40 °C for 2 h (HEK-293 cells): about 45%; increased toxicity (HEK-293 cells; herbicide exposed to UV 254 nm 2 h at 4 °C): 40%; increased toxicity (HEK-293 cells; herbicide exposed to UV 365 nm 2 h at 4 °C): 24%; viability at 24 h ([3]; 40 °C/No UV 2 h): 54.1%; viability at 24 h ([3]; 40 °C/UV 254 nm 2 h): 87.9%; viability at 24 h ([3]; 40 °C/UV 365 nm 2 h): 19.2%; half-life [4]: 19.8 days
